Values quoted from earlier work, collected in patent US9082274B2, “Odor generation alarm and method for informing unusual situation” (priority 2008, dated 2015).
Like-named read-outs stand apart in the source and are kept apart here.

What was measured:
person [1] = settings: concentration in air, ppm by amount of substance
person [2] = settings: with respect to a person, ppm by amount of substance
mice [3] = settings: exposed for four hours
rats = settings: exposed for four hours
mice [4] = settings: oral
domestic rabbits = settings: AIT diluted to 0.1% to 10% with corn oil introduced into the eyes
[5] = orally administered; route not printed in b8

| SMILES | concentration at which a person becomes unable to tolerate the atmosphere / strength of smell (person [1]) [ppm] | concentration at which a person starts to notice a pungent odor (person [1]) [ppm] | concentration from which a person recognizes the smell of wasabi (person [1]) | concentration at which a person becomes unable to tolerate the atmosphere / strength of smell (person [1]; listed as allyl isothiocyanate) [ppm] | no observed effect concentration (person [2]) [ppm] | lethal inhaled concentration (inhaled LC50) (mice [3]) [ppm] | lethal inhaled concentration (inhaled LC50) (rats) [ppm] | orally administered lethal dose (LD50) (mice [4]) [mg/kg] | ocular findings after instillation (domestic rabbits) | lachrymatory effect (humans) | acute dermal toxicity LD50 (rabbits) [mg/kg] | solubility in water | lethal dose (LD50) [5] [mg/kg] | effect when entering the eyes (skin, eyes; eye contact) | effect when coming into contact with the skin (skin, eyes; skin contact) |
| --- | --- | --- | --- | --- | --- | --- | --- | --- | --- | --- | --- | --- | --- | --- | --- |
| C=CCN=C=S [AIT, allyl isothiocyanate] | ≥ 10 | ~1 | around 5 ppm | 10 | 74.3 | 155 | 173 | 310 | nothing more than transient edema and conjunctival hyperemia | there is a lachrymatory effect on humans | 88 | does not dissolve easily in water | – | – | – |
| CS [methyl mercaptan] | – | – | – | – | – | – | – | – | – | – | – | – | 2.4 | reddening and pain when entering the eyes | reddening and pain of the skin |
